B1: granulocyte colony stimulating factor (protein, UniProt P09919 31-207, looked up)
Granulocyte …: TPLGPASSLPQSFLLKCLEQVRKIQGDGAALQEKLVSECATYKLCHPEELVLLGHSLGIPWAPLSSCPSQALQLAGCLSQLHSGLFLYQGLLQALEGISPELGPTLDTLQLDVADFATTIWQQMEELGMAPALQPTQGAMPAFASAFQRRAGGVLVASHLQSFLEVSYRVLRHLAQP
notes: granulocyte colony stimulating factor, recombinant human

How the values were obtained:
[1] = tested on: MDS bone marrow progenitor formation; experiment: MDS vs normal bone marrow progenitor formation in pre-clinical models; type: cell-based
Source text: (§1) The pharmacological effects of 3-(3,4-dimethoxy-phenyl)-3-(1-oxo-1,3-dihydro-isoindol-2-yl)-propionamide derive from its action as an inhibitor of cellular response to receptor-initiated trophic signals (e.g., IGF-1, VEGF, cyclooxygenase-2), and other activities.

[2] = tested on: production of various cytokines; experiment: In vitro pharmacology studies, effects on production of various cytokines, activity comparison with thalidomide; type: cell-based, human
Procedure: The pharmacological properties of 3-(3,4-dimethoxy-phenyl)-3-(1-oxo-1,3-dihydro-isoindol-2-yl)-propionamide, including activity comparisons with thalidomide, are characterized in in vitro studies. Studies examine the effects of 3-(3,4-dimethoxy-phenyl)-3-(1-oxo-1,3-dihydro-isoindol-2-yl)-propionamide on the production of various cytokines. In addition, a safety pharmacology study of -(3,4-dimethoxy-phenyl)-3-(1-oxo-1,3-dihydro-isoindol-2-yl)-propionamide is conducted in dogs and the effects of the compound on ECG parameters are examined further as part of three repeat-dose toxicity studies in primates.
Inhibition of TNF-α production following LPS-stimulation of human PBMC and human whole blood by 3-(3,4-dimethoxy-phenyl)-3-(1-oxo-1,3-dihydro-isoindol-2-yl)-propionamide is investigated in vitro (Muller et al., Bioorg. Med. Chem. Lett. 9:1625-1630, 1999). The IC50's of 3-(3,4-dimethoxy-phenyl)-3-(1-oxo-1,3-dihydro-isoindol-2-yl)-propionamide for inhibiting production of TNF-α following LPS-stimulation of PBMC and human whole blood is measured.
as §1

[3] = tested on: AML cells; experiment: Mitogenic response to VEGF in AML cells (ligand-induced Akt-phosphorylation); type: cell-based; conditions: by extinguishing ligand-induced Akt-phosphorylation
Source text: as §1

[4] = tested on: MDS patients; conditions: cited from earlier work; for granulocytopoiesis in treated patients / improvement in hemoglobin or platelet counts: clinical trials of MDS patients

Molecule | granulocytopoiesis in treated patients [4] | improvement in hemoglobin or platelet counts [4] | further results
COc1ccc(C(CC(N)=O)N2Cc3ccccc3C2=O)cc1OC (centres unmarked) [3-(3,4-dimethoxy-phenyl)-3-(1-oxo-1,3-dihydro-isoindol-2-yl)-propionamide] |  |  | MDS vs normal bone marrow progenitor formation [1]: selectively suppresses MDS vs normal bone marrow progenitor formation; generation of inflammatory cytokines [2]: suppresses the generation of inflammatory cytokines; mitogenic response to VEGF [3]: abrogates mitogenic response to VEGF in AML cells
erythropoietin [recombinant human EPO] |  |  | patients with sustained improvement in hemoglobin or decrease in transfusion requirement ([4]; MDS patients treated with recombinant human EPO): less than 25 % of patients
granulocyte macrophage colony stimulating factor [GM-CSF] | can restore granulocytopoiesis | little or no improvement | 
B1 | can restore granulocytopoiesis | little or no improvement | 
